In US20060167106A1, “Compounds acting at the centrosome” (priority 2004, published 2006):
Entries after “also recorded” stand apart in the source; their conditions may differ. Non-standard residues stand in square brackets, D forms with d. Residues, ends and D or L forms follow the SMILES beside them. *: point of attachment. Nle = CCCC[C@H](N)C(=O)O; Cbz = O=C(OCc1ccccc1)*

Assays:
[1] = molecular target: T1, bovine red blood cell 20S proteasome (Bos taurus, UniProt Q32KL2); assay: 20S Proteasome Assay (in vitro, Suc-Leu-Val-Tyr-AMC); type: biochemical; settings: isolated 20S proteasome
T1 construct: bovine red blood cell 20S proteasome; purchased Calbiochem; host or cells: purified from bovine red blood cells
Protocol: 190 μl of reaction buffer (500 mM HEPES, 10 nM EDTA, pH 7.6), containing 0.03% SDS was pre-incubated for 5 minutes at 37° C. in the presence of 0.2 μg of bovine red blood cell 20S proteasome (Calbiochem, San Diego, Calif.) for temperature equilibration. Subsequently, inhibitors or Compound 1 were added to the reaction mixture at a final DMSO concentration of 0.5%. The reaction was initiated by adding 10 μl of the peptide-AMC substrate (Calbiochem, San Diego, Calif.) to each well. The emitted fluorescence was then measured every third minute at 37° C. for 90 minutes by a fluorescence plate reader (FlexStation II, Molecular Devices, Sunnyvale, Calif.) at 460 nm (λex360 nm) wavelength.
The buffers and reagents for the assay were purchased from Calbiochem (20S Proteasome Assay Kit; Calbiochem, San Diego, Calif.). The principle of the assay is that the release of free AMC (7-Amino-4-methylcoumarin) following degradation of the substrate results in a fluorescent signal that is a measure of proteasome activity. The quantitative analysis of 20S proteasome activity was assayed as described.

CHO-α-tubulin-YFP cells = assay: α-tubulin-YFP localization in CHO-α-tubulin-YFP cells (fluorescence imaging); type: cell-based, Chinese hamster; settings: for accumulation of α-tubulin-YFP at the centrosomes: 5 hours; for accumulation of tubulin-YFP at the centrosomes: 24 hours; for accumulation of tubulin in the centrosomes (overall statement): CHO-tubulin-YFP cells, concentration and time not given; for accumulation of tubulin at the centrosomes versus in the nucleus (overall statement): cells treated, concentration not given
Text: Wild-type Chinese Hamster Ovary cells (WT CHO) cells were maintained in Ham's F-12 medium supplemented with 10% fetal bovine serum (FBS; HyClone, Logan, Utah). Cells of low density (˜20%) growing on 2-well chambered cover-slips (Labtek (Campbell, Calif.) or Fisher Scientific) were transfected with a mammalian expression vector encoding α-tubulin-YFP (Clontech, Palo Alto, Calif.) with the use of FuGENE 6 (Roche Molecular Biochemicals, Indianapolis, Ind.), according to the manufacturer's instructions. Twenty-four hours after transfection, the cells were cultured in 400 μg/ml G418 (Invitrogen, Carlsbad, Calif.)-containing selection medium for 2 weeks. Living cells were examined using a fluorescent microscope for α-tubulin-YFP expression. Cells in single colonies containing microtubules labeled with α-tubulin-YFP were lifted and expanded in G418-containing medium. Expression of α-tubulin-YFP was confirmed by the presence of the tubulin-YFP labeled microtubule pattern identical to immunostained microtubule pattern of non-transfected cells, as well as by subjecting the cells to Western blot analysis using an anti-GFP antibody (Roche Molecular Biochemicals, Basel, Switzerland) and confirming the correct mass of the α-tubulin-YFP chimera protein. Expressed tubulin-YFP was detected as a single band in Western blots. The tubulin-YFP expressing cell lines (referred as CHO-α-tubulin-YFP cells) were used in the studies.
CHO-α-tubulin-YFP cells were cultured in 2-well chambered cover-slips (Labtek (Campbell, Calif.) or Fisher Scientific) 24 hours before treatment. For comparison of the centrosomal effects of treatment with Compound 1, Compound 1+Taxol, and Taxol, CHO-α-tubulin-YFP cells were treated with Compound 1, Compound 1+Taxol, Taxol, or equivalent concentrations of DMSO-containing media for various time periods before imaging. For comparison of the effects of Compound 1 and known proteasome inhibitors on centrosomes, the nucleus, and perinuclear regions, CHO-α-tubulin-YFP cells were treated with Compound 1, ALLN (Calbiochem, San Diego, Calif.), lactacystin (Calbiochem, San Diego, Calif.) or MG132 (Calbiochem, San Diego, Calif.), and imaged at various time points from 3 hours to 24 hours after treatment.
Tubulin-YFP fluorescence in living cells or fixed cells was captured using a standard filter for FITC and objectives of 20× or 60× magnification on a Nikon TE300 microscope with a Leica DC50 color digital camera (Leica, Bannockburn, Ill.) or a CoolSnap HQ Monochrome CCD camera (Photonetrics, Tucson, Ariz.). The Leica DC50 and CoolSnapHQ cameras were controlled with Leica DC50 software and MetaVue/MetaMorph software, respectively (Universal Imaging Corp, Downingtown, Pa.).
CHO-α-tubulin-YFP cells were cultured in 2-well chambered cover-slips (Labtek (Campbell, Calif.) or Fisher Scientific) 24 hours before treatment. For comparison of effects on the centrosome, nucleus, and perinuclear regions, cells were treated with Compound 1 and known proteasome inhibitors including ALLN, MG132, Lactacystin, MG115, clasto-Lactacystin β-Lactone (cLβL), and Epoxomicin (10 μM final concentration for all except ALLN, which was used at 100 μM final concentration) (proteasome inhibitors were from Calbiochem, San Diego, Calif.) and imaged at various time points up to 24 hours during treatment.
Tubulin-YFP fluorescence in living cells or fixed cells was captured using a standard filter for FITC and objectives of 20× or 60× magnification on the Nikon TE300 microscope/digital imaging system.

Hsp70 = Hsp70 Western blotting in MDA-435 cells; type: cell-based; settings: 0.5 μM; for induction of Hsp70 expression: 6 and 24 hours; for percentage change in Hsp70 expression relative to DMSO control: normalized to background and GAPDH
Protocol: Calculations of the percentage changes were made by using the automated band analysis tools of the Kodak 1D (v.3.6.3) program. Band intensities were normalized to background and GAPDH.
MDA-435 breast cancer cells were grown in 100 mm plastic-tissue culture dishes and treated for 6 and 24 hours with 0.5 μM Taxol, Compound 1, Taxol+Compound 1, MG132, ALLN, or DMSO. After treatment, cells were washed in PBS and cell lysates were prepared by adding 100 μL of lysis buffer, which contained 20 mM Tris-HCl (pH 7.5), 150 mM NaCl, 1 mM Na2EDTA, 1 mM EGTA, 1% Triton, 2.5 mM sodium pyrophosphate, 1 mM β-glycerophosphate, 1 mM Na3VO4 and 1 μg/ml leupeptin (Cell Signaling Technology, Beverly, Mass.) supplemented with 1 mM PMSF (Sigma, St. Louis, Mo.) immediately before use, on ice for 1 hour. After scraping, the lysates were cleared by centrifugation at 13,000 RPM for 10 minutes at 4° C. Protein content was determined using a Bradford assay and bovine serum albumin as a standard (Bio-Rad Laboratories, Hercules, Calif.). Samples were solubilized by boiling in SDS sample buffer and subjected to SDS-PAGE. The proteins were subsequently transferred to a PVDF membrane (Bio-Rad, Hercules, Calif.). After blocking with 5% nonfat milk in TBS for 1 hour, the blots were incubated with a mouse monoclonal anti-Hsp70 antibody, which is specific for the inducible form of Hsp70 (Clone C92F3A-5, 1:1000 dilution, Stressgen Biotechnologies Corp., Victoria, B.C., Canada) or a rabbit polyclonal anti-GAPDH antibody (1:2000 dilution, Abcam, Cambridge, Mass.) for 2 hours at room temperature. The horseradish-peroxidase-conjugated secondary antibodies, anti-mouse horse radish peroxidase, (1:2000, Bio-Rad, Hercules, Calif.) and goat anti-rabbit polyclonal horse radish peroxidase (1:2000, Abcam, Cambridge, Mass.)) were diluted in blocking buffer and incubated with the blot for 1 hour at room temperature. The secondary antibodies were detected by enhanced chemiluminescence (ECL, Amersham Biosciences, Piscataway, N.J.) and imaged using a Kodak 440 Image Station.

[2] = system: MDA-435 breast cancer cells; assay: Multi-ubiquitin Western blotting in MDA-435 cells; type: cell-based; settings: for increase of ubiquitinated proteins of the cell lysates: 500 nM
Protocol: Louis, Mo.) immediately before use, on ice for 1 hour. After scraping, the lysates were cleared by centrifugation at 13,000 RPM for 10 minutes at 4° C. Protein content was determined using a Bradford assay and bovine serum albumin as a standard (Bio-Rad Laboratories, Hercules, Calif.). Samples were solubilized by boiling in SDS sample buffer and subjected to SDS-PAGE. The proteins were subsequently transferred to a PVDF membrane (Bio-Rad, Hercules, Calif.). […] The alkaline phosphatase-conjugated secondary antibodies (Invitrogen, Carlsbad, Calif.) were diluted in blocking buffer and incubated with the blot for 1 hour at room temperature. The secondary antibodies were detected by the Western Breeze Chemiluminescent Kit (Invitrogen, Carlsbad, Calif.) and imaged using a Kodak 440 Image Station. Proteins targeted for degradation by the ubiquitin-dependent proteolytic pathway are tagged with multi-ubiquitin molecules. […] In this assay, accumulation of multi-ubiquitinated proteins in the cells is indicative of the impairment of proteasome activity.

Compound	proteasome inhibitory activity in vitro (overall statement) [1]	accumulation of α-tubulin-YFP at the centrosomes (CHO-α-tubulin-YFP cells; CHO cells, 100 μM)	accumulation of YFP-tubulin in the nucleus (CHO-α-tubulin-YFP cells; CHO cells, 100 μM, 8 hours post-treatment)	accumulation of tubulin-YFP at the centrosomes (CHO-α-tubulin-YFP cells; CHO cells, 100 μM)	accumulation of tubulin in the centrosomes (overall statement) (CHO-α-tubulin-YFP cells)	accumulation of tubulin at the centrosomes versus in the nucleus (overall statement) (CHO-α-tubulin-YFP cells)	induction of Hsp70 expression (Hsp70)	percentage change in Hsp70 expression relative to DMSO control (Hsp70; 6 hours of treatment)	percentage change in Hsp70 expression relative to DMSO control (Hsp70; 24 hours of treatment)	proteasome activity in vitro ([1]; 5 nM)	increase of ubiquitinated proteins of the cell lysates ([2]; 6 hours of treatment in cell culture)	increase of ubiquitinated proteins of the cell lysates ([2]; 24 hours of treatment in cell culture)	accumulation of multi-ubiquitinated proteins ([2]; MDA-435 cells, 0.5 μM, 6 and 24 hours)	accumulation of α-tubulin-YFP at the centrosomes (CHO-α-tubulin-YFP cells; CHO cells, 10 μM)	accumulation of α-tubulin-YFP in the nucleus (CHO-α-tubulin-YFP cells; CHO cells, 10 μM, 8 hours post-treatment)	accumulation of tubulin-YFP at the centrosomes (CHO-α-tubulin-YFP cells; CHO cells, 10 μM)
CCCC[C@@H](C=O)NC(=O)[C@H](CC(C)C)NC(=O)[C@H](CC(C)C)NC(C)=O [ALLN] (Ac-Leu-Leu-[Nle]-aldehyde)	exhibited proteasome inhibitory activity	accumulation of α-tubulin-YFP at the centrosomes and perinuclear regions	caused the accumulation of YFP-tubulin in the nucleus	accumulation of tubulin-YFP at the centrosomes	caused accumulation of tubulin-YFP at the centrosomes and in the perinuclear region	both accumulation of tubulin at the centrosomes and in the nucleus	unable to induce expression of Hsp70; also recorded: not capable of inducing Hsp70 expression	82%	137%	–	–	–	–	–	–	–
CC(C)C[C@@H](C=O)NC(=O)[C@H](CC(C)C)NC(=O)[C@H](CC(C)C)NC(=O)OCc1ccccc1 [MG132] (Cbz-Leu-Leu-Leu-aldehyde)	exhibited proteasome inhibitory activity	–	–	–	caused accumulation of tubulin-YFP at the centrosomes and in the perinuclear region	both accumulation of tubulin at the centrosomes and in the nucleus	not as potent an inducer as Compound 1; also recorded: also induced Hsp70 expression after 6 and 24 hours of treatment, but did so less potently than Compound 1 or Compound 1+Taxol	472%	3016%	detectable decrease in proteasome activity	212.58	357.82	caused similar accumulation of multi-ubiquitinated proteins	accumulation of α-tubulin-YFP at the centrosomes and perinuclear regions	accumulation of α-tubulin-YFP in the nucleus; also recorded: caused the accumulation of YFP-tubulin in the nucleus	accumulation of tubulin-YFP at the centrosomes
